Measured values published in US7888341B2, “Combination of glivec (STI571) with a cyclin-dependent kinase inhibitor, especially flavopiridol, in the treatment of cancer” (The United States of America as represented by the …, priority 2002, dated 2011).
Counter-ions that a name gives are not always drawn.

Columns and labels:
[1] = test system: K562 human leukemia cells; test: Apoptosis in K562 cells, morphologic assessment of Wright-Giemsa-stained slides; type: cell-based
Description: (§1) They are cultured in drug-free medium prior to all experimental procedures.
Assessment of apoptosis: Following drug exposures, cytocentrifuge preparations are stained with Wright-Giemsa and viewed by light microscopy to evaluate the extent of apoptosis as described in Wang Z. et al., 1999 Cancer Res. 59, 1259-67.
Values represent the means for three separate experiments performed in triplicate±SD (standard deviation).
Values represent the means for three separate experiments performed in triplicate±S.D (standard deviation).
The Combination Index (CI) is determined in relation to the fraction of cells affected using Median Dose Effect analysis. Results are representative of three separate experiments.

[2] = test system: K562R cells (drug-resistant K562, high Bcr/Abl protein); test: Apoptosis in drug-resistant K562R cells, morphologic assessment; type: cell-based, human
Description: as §1
Values represent the means for three separate experiments performed in triplicate±S.D.

CN1CC[C@H](c2c(O)cc(O)c3c(=O)cc(-c4ccccc4Cl)oc23)[C@H](O)C1 [FP, 4H-1-benzopyran-4-one,2-(2-chlorophenyl)-5,7-dihydroxy-8-(3-hydroxy-1-methyl-4-piperidinyl)-,hydrochloride, (−)-cis-]
cell death ([1]; K562, 150 nM FP by itself): < 5%
percentage of apoptotic cells, mean ([1]; K562, 24 h, FP 150 nM (time course)): 1.40%
percentage of apoptotic cells, mean ([1]; K562, 48 h, FP 50 nM without SALT I): 1.9%
percentage of apoptotic cells, mean ([1]; K562, 48 h, FP 100 nM without SALT I): 2.4%
percentage of apoptotic cells, mean ([1]; K562, 48 h, FP 150 nM (time course)): 3.33%
percentage of apoptotic cells, mean ([1]; K562, 48 h, FP 150 nM without SALT I): 3.2%
percentage of apoptotic cells, mean ([1]; K562, 48 h, FP 200 nM without SALT I): 6.1%
percentage of apoptotic cells, mean ([1]; K562, 48 h, FP 300 nM without SALT I): 18.5%
percentage of apoptotic cells, mean ([1]; K562, 48 h, SALT I 0 nM + FP 150 nM (FP alone)): 0.9%
toxicity ([2]; 48-hr exposure, 150 nM FP): non-toxic
percentage of apoptotic cells, mean ([2]; 48 h, FP 200 nM): 1.77%

Cc1ccc(NC(=O)c2ccc(CN3CCN(C)CC3)cc2)cc1Nc1nccc(-c2cccnc2)n1 [SALT I, 4-[(4-methyl-1-piperazin-1-ylmethyl)-N-[4-methyl-3-[[4-(3-pyridinyl)-2-pyrimidinyl]amino]phenyl]benzamide methanesulfonate]
percentage of apoptotic cells, mean ([1]; K562, 24 h, SALT I 200 nM (time course)): 2.57%
percentage of apoptotic cells, mean ([1]; K562, 48 h, FP 0 nM + SALT I 200 nM (SALT I alone)): 5.7%
percentage of apoptotic cells, mean ([1]; K562, 48 h, SALT I 50 nM without FP): 1.9%
percentage of apoptotic cells, mean ([1]; K562, 48 h, SALT I 100 nM without FP): 1.8%
percentage of apoptotic cells, mean ([1]; K562, 48 h, SALT I 150 nM without FP): 3.0%
percentage of apoptotic cells, mean ([1]; K562, 48 h, SALT I 200 nM (time course)): 5.97%
percentage of apoptotic cells, mean ([1]; K562, 48 h, SALT I 200 nM without FP): 4.6%
percentage of apoptotic cells, mean ([1]; K562, 48 h, SALT I 250 nM without FP): 8.9%
percentage of apoptotic cells, mean ([1]; K562, 48 h, SALT I 300 nM without FP): 20.3%
percentage of apoptotic cells, mean ([1]; K562, 48 h, SALT I 400 nM without FP): 30.8%
percentage of apoptotic cells, mean ([1]; K562, 48 h, SALT I 500 nM without FP): 53.8%
induction of apoptosis ([1]; K562, 48 hr, SALT I concentrations <300 nM): weakly induces apoptosis
apoptosis ([1]; parental K562S cells, 1.5 μM SALT I, 48 hr): > 95%
